Data as given in PubChem BioAssay (NCI).
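Grown in 96-well plates, cells were treated for 48 hours with each compound at five concentrations. Insufficient inhibition: endpoint recorded as highest concentration tested. GI50 marks 50% less growth. TGI: concentration producing complete growth inhibition.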

Legend:
Test in all cases: growth of human tumour cells (NCI), 48 h
[1] = system: HS 578T breast
[2] = system: UO-31 renal
[3] = system: DMS 273 small cell lung
[4] = system: M19-MEL melanoma
[5] = system: LXFL 529 NSCLC
[6] = system: DLD-1 colon
[7] = system: DMS 114 small cell lung
[8] = system: XF 498 CNS
[9] = system: KM20L2 colon
[10] = system: HOP-18 NSCLC
[11] = system: RXF-631 renal
[12] = system: SNB-78 CNS

`COc1cc(C=Nc2ccc(Oc3ccc(Cl)cc3)c(Cl)c2)cc(OC)c1OC` was tested, and the TGI [1] was 41.6 µM and the TGI [2] was 23.2 µM.

For `OB1OCc2ccccc21`, the TGI [1] was over 100 µM and the TGI [2] was over 100 µM.

Compound `COc1cc(/C=C/C(=O)C(C)(C)C)cc(OC)c1OC` has a TGI [3] of over 100 µM, a TGI [4] of over 100 µM and a TGI [5] of 93.5 µM. It also gave a TGI [6] of over 100 µM, a TGI [7] of 71.5 µM and a TGI [2] of over 100 µM. It also gave a TGI [8] of over 100 µM, a TGI [9] of over 100 µM and a TGI [10] of over 100 µM.

For `O=[N+]([O-])c1ccc(-c2ccc(C3=Nn4c(nnc4-c4ccc(Cl)cc4)SC3)o2)cc1`, the TGI [3] was over 100 µM, the TGI [4] was over 100 µM and the TGI [11] was over 100 µM. It also gave a TGI [5] of over 100 µM, a TGI [6] of over 100 µM and a TGI [7] of over 100 µM. The TGI [2] was over 100 µM, the TGI [8] was 60.1 µM and the TGI [9] was over 100 µM. It also gave a TGI [10] of over 100 µM.

`CCN1CCc2sc3[nH]c(=S)n(C)c(=O)c3c2C1` showed a TGI [1] of over 100 µM and a TGI [2] of over 100 µM.

For `COc1cc(OC)cc(N(C)Cc2cnc3nc(N)nc(N)c3c2C)c1`, the TGI [1] was over 100 µM and the TGI [2] was over 100 µM.

With `COC(=O)C1(C(=O)OC)CC2=C(S(=O)(=O)c3ccccc3)C[C@@H](C#N)[C@H]2C1` the TGI [2] was over 100 µM.

Compound `Nc1nc(NC(=O)C2=NS(=O)(=O)c3cc(S(N)(=O)=O)c(Cl)cc3N2)n[nH]1` has a TGI [4] of over 100 µM, a TGI [12] of over 100 µM and a TGI [5] of over 100 µM. It also gave a TGI [6] of over 100 µM, a TGI [7] of over 100 µM and a TGI [2] of over 100 µM. For the same compound, the TGI [8] was over 100 µM, the TGI [9] was over 100 µM and the TGI [10] was over 100 µM.

`COc1ccc(/C=N/NC(=O)c2ccccc2Nc2ccccc2C(=O)N/N=C/c2ccc(OC)c(OC)c2)cc1OC` gave a TGI [1] of over 100 µM and a TGI [2] of over 100 µM.

With `CCOC(=O)C1C(=O)C=C(c2cc(C)ccc2O)CC1c1cccc(Br)c1` (centres undefined) the TGI [1] was 34.4 µM and the TGI [2] was 56.6 µM.

For `Fc1ccccc1N=c1oc2ccc(Br)cc2cc1-c1nc2ccccc2[nH]1`, the TGI [1] was 13.4 µM and the TGI [2] was 20.5 µM.

Compound `COc1cc(C2c3cc4c(c(O)c3C(=O)C3CCC(=O)N32)OCO4)cc(OC)c1OC` (centres undefined) has a TGI [1] of over 100 µM and a TGI [2] of over 100 µM.

In the case of `C=C(Cl)C(Cl)(CBr)CCC(Cl)C(C)C` (centres undefined), the TGI [1] is reported as 4.07 µM and the TGI [2] is reported as 7.4 µM.

For `CC(C)NC(=O)OCc1c(COC(=O)NC(C)C)c(-c2ccc[n+](COC(=O)C3CCCCC3)c2)n2c1CCC2`, the TGI [1] was over 100 µM and the TGI [2] was over 100 µM.

With `CC(C)CCC[C@@H](C)[C@H]1CC[C@H]2[C@@H]3CC=C4CC(OCCCCN(O)CCCSC5OC(CO)C(O)C(O)C5O)CC[C@]4(C)[C@H]3CC[C@]12C` (some centres undefined) the TGI [3] was over 100 µM, the TGI [4] was over 100 µM and the TGI [12] was over 100 µM. The TGI [5] was 47.3 µM, the TGI [6] was over 100 µM and the TGI [7] was 45.6 µM. It also gave a TGI [2] of over 100 µM, a TGI [8] of over 100 µM and a TGI [9] of over 100 µM.

For `O=C(CSCC(=O)N/N=C\c1cc(Br)cc(Br)c1O)N/N=C\c1cc(Br)cc(Br)c1O`, the TGI [1] was over 100 µM and the TGI [2] was 49.6 µM.

In the case of `COc1cc2c(cc1C)NC(=O)/C2=C/c1c(Cl)n(C)c2ccccc12`, the TGI [1] is reported as 12.8 µM and the TGI [2] is reported as 22.9 µM.

Compound `CCC(c1ccc(N(C)C)cc1)C1NC(=S)NC1=O` (centres undefined) has a TGI [1] of over 100 µM and a TGI [2] of over 100 µM.

For `CC(=O)CC(=O)Nn1c(-c2cccs2)nc2ccc(I)cc2c1=O`, the GI50 [1] was 18.9 µM, the TGI [1] was 71.3 µM and the TGI [2] was over 91.3 µM.

`c1ccc(C2(c3cc4ccccc4[nH]3)OCCO2)cc1` showed a TGI [2] of over 100 µM.

Compound `Cc1ccc(CCNC(=S)SCC(NC(=O)CCC(N)C(=O)O)C(=O)NCC(=O)O)cc1` (centres undefined) has a TGI [3] of 1.68 µM, a TGI [4] of 4.07 µM and a TGI [11] of 5.62 µM. For the same compound, the TGI [5] was 2.12 µM, the TGI [6] was 2.63 µM and the TGI [7] was 2.72 µM. It also gave a TGI [2] of 2.33 µM, a TGI [8] of 3.15 µM and a TGI [9] of 5.1 µM. The TGI [10] was 7.76 µM.

Work on `CCOc1c(OC)cc(CNNc2nccs2)cc1OC` yielded a TGI [1] of over 100 µM and a TGI [2] of over 100 µM.

`O=C(C(Cl)=C(Nc1ccccc1)Nc1ccccc1)C(Cl)Cl` showed a TGI [1] of over 100 µM and a TGI [2] of over 100 µM.

`C=CC(C)(C)c1cc([C@@H]2COc3cc(O)ccc3C2=O)c(O)c(OC)c1OC` showed a TGI [1] of 72.2 µM and a TGI [2] of 28.3 µM.

`COc1ccc2[nH]c3c(C)c4ccnc(NCCCN(C)CCCNC(=O)NCCCN(C)CCCNc5nccc6c(C)c7[nH]c8ccc(OC)cc8c7c(C)c56)c4c(C)c3c2c1` gave a TGI [1] of over 50 µM and a TGI [2] of over 16.9 µM.

`C[C@H]1C(=O)C2=C[C@H]1CCC(=O)[C@]1(C)CCCC(C)(C)[C@H]1C[C@H]2O` was tested, and the TGI [1] was 62.7 µM and the TGI [2] was 75.1 µM.

Compound `Nc1c2ccccc2nc2ccc(C(=O)Nc3ccc(S(N)(=O)=O)cc3)cc12` has a TGI [1] of over 100 µM and a TGI [2] of over 100 µM.

In the case of `O=C(N/N=C/c1cc(-c2ccccc2Cl)c(-c2ccccc2Cl)o1)c1ccncc1`, the TGI [4] is reported as over 100 µM, the TGI [11] is reported as over 100 µM and the TGI [5] is reported as over 100 µM. For the same compound, the TGI [6] was over 100 µM, the TGI [7] was over 100 µM and the TGI [8] was over 100 µM. For the same compound, the TGI [9] was over 100 µM.

Compound `CC(=O)/C=C\C(=O)NNS(=O)(=O)c1ccc(C)cc1` has a TGI [3] of over 100 µM, a TGI [4] of over 100 µM and a TGI [11] of over 100 µM. The TGI [12] was over 100 µM, the TGI [5] was over 100 µM and the TGI [6] was over 100 µM. It also gave a TGI [2] of over 100 µM, a TGI [8] of over 100 µM and a TGI [9] of over 100 µM.

Work on `CCOc1ccccc1Nc1nc(C)c(C(=O)CC(=O)C(=O)Nc2ccccc2)s1` yielded a TGI [3] of over 100 µM, a TGI [4] of over 100 µM and a TGI [12] of over 100 µM. It also gave a TGI [5] of over 100 µM, a TGI [6] of over 100 µM and a TGI [7] of over 100 µM. For the same compound, the TGI [2] was over 100 µM, the TGI [8] was over 100 µM and the TGI [9] was over 100 µM. The TGI [10] was over 100 µM.

With `CN(C)/C=C/c1ccnc2c1C(=O)c1ccccc1C2=O` the TGI [1] was 7.06 µM and the TGI [2] was 43.6 µM.

`CC(C)Oc1c(O)c2c3c(oc(=O)n3C=CC2c2ccccc2F)c1OC(C)C` (centres undefined) gave a TGI [1] of over 100 µM and a TGI [2] of over 100 µM.

`O=c1[nH]c2cccccc-2c1-c1nc2ccccc2[nH]1` showed a TGI [3] of 70.6 µM, a TGI [4] of over 100 µM and a TGI [12] of over 100 µM. The TGI [5] was over 100 µM, the TGI [6] was over 100 µM and the TGI [7] was over 100 µM. The TGI [2] was 86.6 µM, the TGI [8] was 42.3 µM and the TGI [9] was over 100 µM.
